Measurements as given in US8029770B2 (Rutgers, The State University, priority 2003, dated 2011).
“Also recorded” adds a separate entry of the source. Read-outs that look alike come from different tables or passages of the source. Marks after values point to notes of the source that are not given here.

Columns and labels:
cyclin B1 = test: Epidermal cyclin B1 in UVB-treated mice, western blot and immunohistochemistry; format: in vivo, mouse
[1] = system: UVB-induced skin tumors in high risk SKH-1 mice
phospho-Chk2 (Ser387) = test: Epidermal phospho-Chk2 (Ser387) in UVB-treated mice, western blot; format: in vivo, mouse; conditions: topical immediately after UVB 30 mJ/cm2; 6 hours
[2] = system: UVB-induced skin lesions in SKH-1 mice; test: Prevention of UVB-induced skin (sunburn) lesions, sunscreen effect; format: in vivo, mouse; conditions: 4.8% caffeine or 8.0% caffeine sodium benzoate (24 μmoles) in 100 mg DERMABASE 30 minutes before UVB 180 mJ/cm^2 on two consecutive days (FIG. 2)
Procedure: The areas (mm^2) and the intensity of red color in UVB-induced skin lesion were estimated semi-quantitatively 5 days after first UVB treatment. The lesion index were calculated as the lesion area multiplied by the arbitrary intensity: 0, no lesion; 1 barely detectable red lesion; 2 moderate red lesion, and 3, bright red lesion.
Outdoor occupational human exposure to UVB or a sunbathing exposure in the summer has been reported to range from 50-100 mJ/cm^2 per day (Larko, et al. (1983) Clin. Exp. Dermatol. 8:279-285; Diffey (1991) Phys. Med. Biol. 36:299-328).

[3] = Weight of mouse during topical treatment of UVB-pretreated high risk SKH-1 mice; format: in vivo
Procedure: Female SKH-1 mice were treated with 30 mJ/cm^2 of UVB twice a week for 20 weeks.

[4] = system: prostate tumor cell line PC-3; test: Apoptosis in prostate tumor cell line PC-3; format: cell-based
[5] = system: apoptotic sunburn cells in the epidermis of SKH-1 mice; test: UVB-induced apoptotic sunburn cells in the epidermis of SKH-1 mice after topical application; format: in vivo, mouse; conditions: for Percent Apoptotic Sunburn Cells, Non-UVB Treated: no UVB
Procedure: Chemicals and Animals. […] Female SKH-1 hairless mice (6 to 7 weeks old) were purchased from the Charles River Breeding Laboratories, and the animals were kept in an animal facility for at least one week before use at 7 to 8 weeks of age. Mice were given water and PURINA® Laboratory CHOW® 5001 diet from Ralston-Purina (St. […] For the analysis conducted herein, 5 mice were used per group. Treatment of Mice with UVB. […] The radiation was further calibrated with a model IL-1700 research radiometer/photometer (International Light, Newburyport, Mass.). Measurement of apoptotic sunburn cells. Identification of apoptoic sunburn cells was based morphologically on cell shrinkage and nuclear condensation due to fragmentation of the cells. […] Six hours after UVB, the animals were sacrificed and apoptotic sunburn cells in the epidermis were determined morphologically. […] Six hours after UVB, the animals were sacrificed and apoptotic sunburn cells in the epidermis were determined morphologically. […] Acetone Formulation. […] Six hours after UVB, the animals were sacrificed and apoptotic sunburn cells in the epidermis were determined morphologically. […] […] Formulations. […] Six hours after UVB the animals were sacrificed and apoptotic sunburn cells in the epidermis were determined morphologically. […] Six hours after UVB the animals were sacrificed and apoptotic sunburn cells in the epidermis were determined morphologically.

Cn1c(=O)c2c(ncn2C)n(C)c1=O.O=C([O-])c1ccccc1.[Na+] [Caffeine Sodium Benzoate, caffeine sodium benzoate]
percent of cyclin B1 positive cells in the epidermis (cyclin B1; UVB-treated mice, frozen sections, immunohistochemical): substantially enhanced
effect on cyclin B1 positive cells in the absence of UVB (cyclin B1; no UVB): little or no effect
level of epidermal cyclin B1 vs UVB alone (cyclin B1; topical immediately after UVB 30 mJ/cm2, western blot): increased substantially
No. of large tumors (diameter > 5 mm) ([1]; week 0, 2% CSB in DERMABASE): 0
Tumor volume per mouse (all mice) (mm^3) ([1]; week 0, 2% CSB in DERMABASE): 0 mm^3
Tumor volume per tumor (mm^3) ([1]; week 0, 2% CSB in DERMABASE): 0 mm^3
Tumors per mouse ([1]; week 0, 2% CSB in DERMABASE): 0
No. of large tumors (diameter > 5 mm) ([1]; week 0, 6% CSB in DERMABASE): 0
Tumor volume per mouse (all mice) (mm^3) ([1]; week 0, 6% CSB in DERMABASE): 0 mm^3
Tumor volume per tumor (mm^3) ([1]; week 0, 6% CSB in DERMABASE): 0 mm^3
Tumors per mouse ([1]; week 0, 6% CSB in DERMABASE): 0
No. of large tumors (diameter > 5 mm) ([1]; week 5, 2% CSB in DERMABASE): 0
Tumor volume per mouse (all mice) (mm^3) ([1]; week 5, 2% CSB in DERMABASE): 0.1 ± 0.1 mm^3
Tumor volume per tumor (mm^3) ([1]; week 5, 2% CSB in DERMABASE): 0.5 ± 0.0 mm^3
Tumors per mouse ([1]; week 5, 2% CSB in DERMABASE): 0.2 ± 0.1
No. of large tumors (diameter > 5 mm) ([1]; week 5, 6% CSB in DERMABASE): 0
Tumor volume per mouse (all mice) (mm^3) ([1]; week 5, 6% CSB in DERMABASE): 0.0 ± 0.0 mm^3
Tumor volume per tumor (mm^3) ([1]; week 5, 6% CSB in DERMABASE): 0.5 ± 0.0 mm^3
Tumors per mouse ([1]; week 5, 6% CSB in DERMABASE): 0.0 ± 0.0
No. of large tumors (diameter > 5 mm) ([1]; week 7, 2% CSB in DERMABASE): 0
Tumor volume per mouse (all mice) (mm^3) ([1]; week 7, 2% CSB in DERMABASE): 0.6 ± 0.4 mm^3
Tumor volume per tumor (mm^3) ([1]; week 7, 2% CSB in DERMABASE): 1.5 ± 0.5 mm^3
Tumors per mouse ([1]; week 7, 2% CSB in DERMABASE): 0.4 ± 0.2
No. of large tumors (diameter > 5 mm) ([1]; week 7, 6% CSB in DERMABASE): 0
Tumor volume per mouse (all mice) (mm^3) ([1]; week 7, 6% CSB in DERMABASE): 0.1 ± 0.1 mm^3
Tumor volume per tumor (mm^3) ([1]; week 7, 6% CSB in DERMABASE): 0.5 ± 0.0 mm^3
Tumors per mouse ([1]; week 7, 6% CSB in DERMABASE): 0.2 ± 0.1
No. of large tumors (diameter > 5 mm) ([1]; week 9, 2% CSB in DERMABASE): 0
Tumor volume per mouse (all mice) (mm^3) ([1]; week 9, 2% CSB in DERMABASE): 1.0 ± 0.5 mm^3
Tumor volume per tumor (mm^3) ([1]; week 9, 2% CSB in DERMABASE): 1.9 ± 0.9 mm^3
Tumors per mouse ([1]; week 9, 2% CSB in DERMABASE): 0.5 ± 0.2
No. of large tumors (diameter > 5 mm) ([1]; week 9, 6% CSB in DERMABASE): 0
Tumor volume per mouse (all mice) (mm^3) ([1]; week 9, 6% CSB in DERMABASE): 0.3 ± 0.2 mm^3
Tumor volume per tumor (mm^3) ([1]; week 9, 6% CSB in DERMABASE): 0.9 ± 0.4 mm^3
Tumors per mouse ([1]; week 9, 6% CSB in DERMABASE): 0.3 ± 0.1
No. of large tumors (diameter > 5 mm) ([1]; week 11, 2% CSB in DERMABASE): 0
Tumor volume per mouse (all mice) (mm^3) ([1]; week 11, 2% CSB in DERMABASE): 1.8 ± 0.2 mm^3
Tumor volume per tumor (mm^3) ([1]; week 11, 2% CSB in DERMABASE): 2.1 ± 0.6 mm^3
Tumors per mouse ([1]; week 11, 2% CSB in DERMABASE): 0.9 ± 0.3
No. of large tumors (diameter > 5 mm) ([1]; week 11, 6% CSB in DERMABASE): 0
Tumor volume per mouse (all mice) (mm^3) ([1]; week 11, 6% CSB in DERMABASE): 1.0 ± 0.4 mm^3
Tumor volume per tumor (mm^3) ([1]; week 11, 6% CSB in DERMABASE): 2.0 ± 0.5 mm^3
Tumors per mouse ([1]; week 11, 6% CSB in DERMABASE): 0.5 ± 0.2
UVB-induced increase in the level of phospho-Chk2 (Ser387) (phospho-Chk2 (Ser387)): inhibited
formation of UVB-induced sunburn (skin) lesions [2]: significantly prevented skin lesion formation; also recorded: inhibited the formation of sunburn lesions; also recorded: even more dramatic inhibitory effect
Weight of mouse ([3]; week 0, 2% CSB in DERMABASE): 30.5 ± 0.5 g
Weight of mouse ([3]; week 0, 6% CSB in DERMABASE): 30.4 ± 0.6 g
Weight of mouse ([3]; week 5, 2% CSB in DERMABASE): 30.3 ± 0.4 g
Weight of mouse ([3]; week 5, 6% CSB in DERMABASE): 29.9 ± 0.5 g
Weight of mouse ([3]; week 7, 2% CSB in DERMABASE): 30.6 ± 0.4 g
Weight of mouse ([3]; week 7, 6% CSB in DERMABASE): 29.8 ± 0.5 g
Weight of mouse ([3]; week 9, 2% CSB in DERMABASE): 30.6 ± 0.4 g
Weight of mouse ([3]; week 9, 6% CSB in DERMABASE): 30.0 ± 0.5 g
Weight of mouse ([3]; week 11, 2% CSB in DERMABASE): 30.7 ± 0.5 g
Weight of mouse ([3]; week 11, 6% CSB in DERMABASE): 30.2 ± 0.5 g
apoptosis in PC-3 ([4]; 0.1, 0.2 or 0.5 mM for 96 hours): dose-response relationship on apoptosis
pro-apoptotic effect compared with caffeine ([4]; PC-3, 0.1, 0.2 or 0.5 mM, 96 hours): more potent than caffeine at all dose levels tested
Percent Sunburn Cells, UVB ([5]; 6.2 μmole (each) in 100 μL acetone:water (9:1) immediately after UVB 30 mJ/cm^2 and at 30 and 120 min, 6 h, mean ± S.E.): 1.10 ± 0.10%
Percent Apoptotic Sunburn Cells ([5]; 6.2 μmole in 100 μL acetone right after UVB 30 mJ/cm^2 and at 30 and 120 min, 6 h after UVB, mean ± S.E.): 1.089 ± 0.080^a %
Percent Sunburn Cells, UVB ([5]; 100 mg formulation (2.4% caffeine or 4.0% caffeine sodium benzoate, 12.4 μmole, in DERMABASE; or commercial product) immediately after UVB 30 mJ/cm^2, 6 h): 2.33 ± 0.36^a %
Percent Sunburn Cells, UVB ([5]; 1.0% CSB in 100 mg DERMABASE immediately after UVB 30 mJ/cm^2, 6 h): 0.74 ± 0.20^a %
Percent Sunburn Cells, UVB ([5]; 2.0% CSB in 100 mg DERMABASE immediately after UVB 30 mJ/cm^2, 6 h): 0.99 ± 0.20^a %
Percent Sunburn Cells, UVB ([5]; 4.0% CSB in 100 mg DERMABASE immediately after UVB 30 mJ/cm^2, 6 h): 1.22 ± 0.19^a %
Percent Sunburn Cells, UVB ([5]; 6.0% CSB in 100 mg DERMABASE immediately after UVB 30 mJ/cm^2, 6 h): 1.67 ± 0.31^a %
Percent Sunburn Cells, UVB ([5]; 8.0% CSB in 100 mg DERMABASE immediately after UVB 30 mJ/cm^2, 6 h): 1.75 ± 0.32^a %
enhancement of UVB-induced apoptosis in the epidermis, applied in DERMABASE ([5]; DERMABASE vehicle, equimolar amounts (Table 4)): to a greater extent than equimolar amounts of caffeine
Percent Apoptotic Sunburn Cells ([5]; Exp-1, 6.2 μmole in acetone:water (9:1) x3 after UVB 30 mJ/cm^2, 6 h): 1.09 ± 0.08%
Percent Apoptotic Sunburn Cells ([5]; Exp-2, 3.1 μmole in acetone:water (9:1) x3 after UVB 30 mJ/cm^2, 6 h): 0.45 ± 0.07%
Percent Apoptotic Sunburn Cells, Non-UVB Treated ([5]; Exp-2, 3.1 μmole): 0.02 ± 0.01%
Percent Apoptotic Sunburn Cells ([5]; Exp-2, 6.2 μmole in acetone:water (9:1) x3 after UVB 30 mJ/cm^2, 6 h): 0.68 ± 0.06%
Percent Apoptotic Sunburn Cells, Non-UVB Treated ([5]; Exp-2, 6.2 μmole): 0.03 ± 0.01%
% Induction ([5]; Table 1, vs acetone group, 6.2 μmole x3 after UVB 30 mJ/cm^2, 6 h): 434%
% Induction ([5]; Table 3 Exp-1, 6.2 μmole): 445%
% Induction ([5]; Table 3 Exp-2, 3.1 μmole): 114%
% Induction ([5]; Table 3 Exp-2, 6.2 μmole): 224%
% Induction ([5]; Table 4, 1.0% CSB in DERMABASE): 270%
% Induction ([5]; Table 4, 2.0% CSB in DERMABASE): 395%
% Induction ([5]; Table 4, 4.0% CSB in DERMABASE): 510%
% Induction ([5]; Table 4, 6.0% CSB in DERMABASE): 735%
% Induction ([5]; Table 4, 8.0% CSB in DERMABASE): 775%
effect on non-UVB-treated cells ([5]; no UVB (Table 3)): unaffected
